# Values of other authors in US20220362140A1, “Novel Dental Care and Cleansing Composition” (GROUP PHARMACEUTICALS, priority 2020, published 2022).
# Details: much higher concentration
structure (smiles),measurement,value
O=BO[O-].[Na+] [Sodium perboarate],Concentration that is toxic,25%
